From patent US20090285919A1, “Rice Bran Extracts for Inflammation and Methods of Use Thereof” (priority 2008, published 2009)

Molecular target: T1, COX-2 (Homo sapiens, UniProt P35354)
T1 construct: purchased Cayman Chemicals (Ann Arbor, Mich.)
T1 sequence (P35354 18-604): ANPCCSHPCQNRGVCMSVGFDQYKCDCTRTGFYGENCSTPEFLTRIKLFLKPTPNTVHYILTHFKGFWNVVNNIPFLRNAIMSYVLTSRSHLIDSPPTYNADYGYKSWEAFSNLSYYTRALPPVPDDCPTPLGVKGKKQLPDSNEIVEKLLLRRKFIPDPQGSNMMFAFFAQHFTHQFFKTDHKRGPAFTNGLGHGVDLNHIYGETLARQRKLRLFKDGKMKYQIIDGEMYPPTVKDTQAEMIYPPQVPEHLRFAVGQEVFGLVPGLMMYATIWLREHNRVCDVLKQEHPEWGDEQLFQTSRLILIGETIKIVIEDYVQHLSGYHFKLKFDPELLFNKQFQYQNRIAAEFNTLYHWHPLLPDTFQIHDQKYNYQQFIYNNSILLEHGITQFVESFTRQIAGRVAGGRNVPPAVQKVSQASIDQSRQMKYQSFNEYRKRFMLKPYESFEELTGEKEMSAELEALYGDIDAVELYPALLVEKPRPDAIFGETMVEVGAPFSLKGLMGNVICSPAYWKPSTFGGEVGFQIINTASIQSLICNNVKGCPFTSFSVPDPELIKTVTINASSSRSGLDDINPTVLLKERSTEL
Assay: COX-2 inhibition assay (Cayman Chemicals; prostaglandin production quantified by EIA)
Assay type: biochemical
Details: in words; known compounds of SRB Extract 1
Procedure: All reagents and solutions were prepared according to the protocols established by Cayman Chemicals (Ann Arbor, Mich.) for the COX-1 and COX-2 inhibition assays. Two procedures were utilized to assess the COX-1/COX-2-specific and non-specific activities.
Prostaglandin Production Inhibition: Extracts were diluted in dimethylsulfoxide (DMSO), and then diluted in reaction buffer so that the final concentration of DMSO was 1%. Reactions were either run with COX-1 or COX-2 in the presence of Heme. Wells containing potential inhibitors (SRB extracts), non-inhibitor (100% activity) or background wells (heat inactivated enzyme) along with appropriate blanks were prepared. Solutions were placed in a 37° C. incubator for 15 minutes prior to running the reaction. Arachidonic acid was added and mixed and the reaction proceeded for 2 minutes. The reaction was stopped by addition of 1 M HCl to each well, then reducing the Prostaglandin H2 product to ProstaglandinG F2, which was quantified using EIA.
Quantification of Prostaglandin with EIA: The EIA assay plate was provided in the Cayman Chemicals screening kit. Aliquots, 50 μL, of the reaction products (PGF2) from prostaglandin production were added to their respective wells. […] The color development was quantified at 409 nm in a Tecan M200 microplate reader.

| Compound | COX-2 inhibition |
| --- | --- |
| CCCc1ccccn1 [conyrin] | strong |
| CC1(C)C[C@@H](O)C[C@@]2(C)OC(=O)C=C12 [epiloliode, Epiloliolide] | strong |
